Data published in patent publication US20250228864A1, “THERAPIES FOR THE TREATMENT OF INFLAMMATORY BOWEL DISEASE” (Gilead Sciences, Inc., priority 2023, published 2025).

Assay: First-in-human Part A: plasma PK after single ascending doses of Formula (III)
Type: in vivo
Experimental: This was a 3-part study to evaluate pharmacokinetics, safety, tolerability, and pharmacodynamics of the Formula (III) compound in healthy volunteers. • To understand the single-dose PK, safety, tolerability, and PD of Formula (III) and its active metabolite, subjects in Part A received a single dose of Formula (III) in the fasting state in a dose-escalating manner. […]
Formula (III) is a prodrug of Formula (I). Plasma concentrations of Formula (III) metabolite was determined, and PK parameters estimated. Plasma concentrations of Formula (III) and/or its metabolites were determined, and PK explored, as appropriate.
Concentrations of Formula (III) and the metabolite, in plasma samples were determined using fully validated high-performance liquid chromatography-tandem mass spectrometry (LC-MS/MS) bioanalytical methods. All samples were analyzed in the timeframe supported by frozen stability storage data. […]

plasma exposures of the prodrug Formula (III) compared with the active metabolite: negligible
Compound: CCOC(=O)[C@H](Cc1ccc(-n2c(=O)c3ccncc3n(C)c2=O)c2ncccc12)NC(=O)c1c(C)cc(N2CCOC[C@@H]2C(F)(F)F)cc1F (atropisomer, axis not shown) [Formula (III)]
